Experiment [1] has as its system Arabidopsis wildtype control plants. As to the kind of experiment: Arabidopsis growth inhibition in 48-well plates, wildtype control. The class given is in vivo, Arabidopsis thaliana. As to conditions: plant growth IC50 divided by that of wildtype plants. As to the method: Depending on the species, the plants are kept at 10-25° C. or 20-35° C. The test period extends over 3 weeks. During this time, the plants are tended and their response to the individual treatments is evaluated. Herbicide injury evaluations are taken at 2 and 3 weeks after treatment. Plant injury is rated on a scale of 0 to 9, 0 being no injury and 9 being complete death. Tolerance to coumarone-derivative herbicides can also be assessed in Arabidopsis. In this case transgenic Arabidopsis thaliana plants are assayed for improved tolerance to coumarone-derivative herbicides in 48-well plates. Seeds are surface sterilized by stirring for 5 min in ethanol+water (70+30 by volume), rinsing one time with ethanol+water (70+30 by volume) and two times with a sterile, deionized water. The seeds are resuspended in 0.1% agar dissolved in water (w/v). Four to five seeds per well are plated on solid nutrient medium consisting of half-strength Murashige Skoog nutrient solution, pH 5.8 (Murashige and Skoog (1962) Physiologia Plantarum 15: 473-497). […] Seven to ten days after seeding growth inhibition is evaluated by comparison to wild type plants. Tolerance factor is calculated by dividing the plant growth IC50 value of transgenic plants containing a HPPD and/or HST sequence by that of wildtype plants. […]

Another experiment concerns Lolium HPPD. Nature of the experiment: HPPD activity assay, Lolium HPPD. The conditions noted are these: normalized on Hordeum HPPD. The class given is biochemical. As for the experimental part: (§1) HPPD produces homogentisic acid and CO2 from 4-hydroxyphenylpyruvate (4-HPP) and O2. The activity assay for HPPD is based on the analysis of homogentisic acid by reversed phase HPLC.
(§2) The assay mixture can contain 150 mM potassium phosphate buffer pH 7.0, 50 mM L-ascorbic acid, 1 μM FeSO4 and 7 μg of purified enzyme in a total volume of 1 ml. Inhibitors are dissolved in DMSO (dimethylsulfoxide) to a concentration of 20 mM or 0.5 mM, respectively. From this stock solution serial five-fold dilutions are prepared in DMSO, which are used in the assay. The respective inhibitor solution accounts for 1% of the assay volume. […]
Activities are normalized by setting the uninhibited enzyme activity to 100%. […] values are calculated using non-linear regression. […]
(§3) Inhibitors are dissolved in DMSO (dimethylsulfoxide) to a concentration of 0.5 mM. […] IC50 values are calculated using non-linear regression.
Using methods which are described in the above examples or well known in the art, purified, recombinant wildtype HPPD enzymes are characterized with respect to their kinetic properties and sensitivity towards HPPD inhibiting herbicides. Apparent michaelis constants (Km) and maximal reaction velocities (Vmax) are calculated by non-linear regression with the software GraphPad Prism 5 (GraphPad Software, La Jolla, USA) using a substrate inhibition model. […]

In experiment [2] the target is T1, Hordeum HPPD variant L334E (Hordeum vulgare, UniProt O48604, A164G/L334E/R146V/R147D/R148G).
T1 construct: His6; made in house; host or cells: E. coli BL21 (DE3)
Nature of the experiment: HPPD activity assay, Hordeum HPPD mutant L334E. As to conditions: normalized on wildtype. The class given is biochemical. As for the experimental part:
as §1
as §2, with “volume. Thus, final inhibitor concentrations range from 200 μM to 2.5 nM or from 5 μM to 63 pM, respectively. After a preincubation of 30 min the reaction is started by adding 4-HPP to a final concentration of 0.1 mM.” for “volume.”
as §3
(§4) Purified, mutant HPPD enzymes are obtained by the methods described above. […] Apparent michaelis constants (Km) and maximal reaction velocities (Vmax) are calculated by non-linear regression with the software GraphPad Prism 5 (GraphPad Software, La Jolla, USA) using a substrate inhibition model. […] Weighted means (by standard error) of Km and […] values are calculated from at least three independent experiments. […]

For experiment [3], the target named is T2, Hordeum HPPD variant L320N (Hordeum vulgare, UniProt O48604, A164G/L320N/R146V/R147D/R148G).
T2 construct: His6; made in house; host or cells: E. coli BL21 (DE3)
Nature of the experiment: HPPD activity assay, Hordeum HPPD mutant L320N. In kind it is biochemical. The conditions noted are these: normalized on wildtype. As for the experimental part:
as §1
as §2, with “volume. Thus, final inhibitor concentrations range from 200 μM to 2.5 nM or from 5 μM to 63 pM, respectively. After a preincubation of 30 min the reaction is started by adding 4-HPP to a final concentration of 0.1 mM.” for “volume.”
as §3, §4

T1 sequence (O48604 whole entry R146V/R147D/R148G/A164G/L334E): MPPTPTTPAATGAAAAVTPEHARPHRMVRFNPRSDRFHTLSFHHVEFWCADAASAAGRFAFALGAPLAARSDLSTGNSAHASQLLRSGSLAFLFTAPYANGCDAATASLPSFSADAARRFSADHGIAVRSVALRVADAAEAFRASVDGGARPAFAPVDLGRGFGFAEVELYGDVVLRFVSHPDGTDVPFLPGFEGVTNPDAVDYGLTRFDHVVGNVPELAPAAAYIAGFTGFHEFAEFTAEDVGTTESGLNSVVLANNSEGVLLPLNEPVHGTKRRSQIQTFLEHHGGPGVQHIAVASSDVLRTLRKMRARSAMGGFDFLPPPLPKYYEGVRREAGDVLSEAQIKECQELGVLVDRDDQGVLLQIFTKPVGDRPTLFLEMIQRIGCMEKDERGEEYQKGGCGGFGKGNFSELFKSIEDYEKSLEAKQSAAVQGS
T2 sequence (O48604 whole entry R146V/R147D/R148G/A164G/L320N): as the sequence (O48604 whole entry R146V/R147D/R148G/A164G/L334E) above, with L320N, E334L counted along it

Consider `CC1=NOC(c2c(Cl)ccc(C3=C(O)c4ncccc4N(CC(F)F)S3(=O)=O)c2Cl)C1` (centres unmarked) [Inhibitor 1, 3-[2,4-dichloro-3-(3-methyl-4,5-dihydroisoxazol-5-yl)phenyl]-1-(2,2-difluoroethyl)-2,2-dioxo-pyrido[3,2-c]thiazin-4-ol], for which, in experiment [1], the Tolerance factor turned out to be 1. Besides, the “Normalized tolerance index (TI)” value with Lolium HPPD is reported as 6.5; in experiment [2], 3.8; in experiment [3], 3.3.

In turn, `O=S1(=O)C(c2c(Cl)cc(Cl)nc2Cl)=C(O)c2ncccc2N1CC(F)F` [Inhibitor 2, 1-(2,2-difluoroethyl)-2,2-dioxo-3-(2,4,6-trichloro-3-pyridyl)pyrido[3,2-c]thiazin-4-ol] returned a Tolerance factor in experiment [1] of 1. The “Normalized tolerance index (TI)” value in the experiment on Lolium HPPD is 5.6; in experiment [2] it was 2.2; in experiment [3], 1.7.

These data come from US10801035B2, “Plants having increased tolerance to herbicides” (BASF SE, priority 2011, dated 2020).
